From patent US12162858B2, “Quinoline derivatives as inhibitors of AXL/MER RTK and CSF1R” (QURIENT CO., LTD., priority 2018, dated 2024) come the findings set out here.

SMILES strings stand for the structures.

One test deals with T1, Axl (Homo sapiens, UniProt P30530).
T1 sequence (P30530 26-894): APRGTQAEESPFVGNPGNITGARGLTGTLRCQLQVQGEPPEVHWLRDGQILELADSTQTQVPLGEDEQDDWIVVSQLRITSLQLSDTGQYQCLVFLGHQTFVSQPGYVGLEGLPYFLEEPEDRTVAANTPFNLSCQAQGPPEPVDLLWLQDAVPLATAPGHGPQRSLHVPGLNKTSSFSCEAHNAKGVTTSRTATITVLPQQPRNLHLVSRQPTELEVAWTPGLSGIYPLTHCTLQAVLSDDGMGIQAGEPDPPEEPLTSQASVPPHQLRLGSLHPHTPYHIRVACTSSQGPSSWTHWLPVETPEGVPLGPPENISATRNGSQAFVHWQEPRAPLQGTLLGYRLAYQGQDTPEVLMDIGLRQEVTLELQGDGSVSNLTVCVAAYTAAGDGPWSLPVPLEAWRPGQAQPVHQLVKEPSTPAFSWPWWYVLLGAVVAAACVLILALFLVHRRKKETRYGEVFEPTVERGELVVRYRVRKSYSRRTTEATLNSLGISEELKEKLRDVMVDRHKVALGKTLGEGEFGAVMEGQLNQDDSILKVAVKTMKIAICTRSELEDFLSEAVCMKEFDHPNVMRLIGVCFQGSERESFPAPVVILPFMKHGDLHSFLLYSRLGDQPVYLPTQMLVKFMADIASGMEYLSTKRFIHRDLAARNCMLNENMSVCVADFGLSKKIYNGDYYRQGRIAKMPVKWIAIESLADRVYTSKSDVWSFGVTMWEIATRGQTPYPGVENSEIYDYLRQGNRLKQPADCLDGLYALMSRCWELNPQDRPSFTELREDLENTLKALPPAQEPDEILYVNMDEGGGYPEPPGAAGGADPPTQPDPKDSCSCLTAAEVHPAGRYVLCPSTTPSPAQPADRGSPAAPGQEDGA
Nature of the test: LanthaScreen Eu kinase binding assay for Axl. Particulars: comparison of compounds of present invention (**) vs compounds of WO2016/166250 (*); read-out: Binding activity Axl (Kd). As for the experimental part: LanthaScreen® Eu Kinase Binding assays were conducted at Life Technologies using the manufacturer's specifications for each kinase indicated.
Briefly, the principle behind this assay is based upon the binding and displacement of an Alexa Fluor 647-labeled tracer to the kinase of interest. Binding of the tracer to the kinase is detected using an EU-labeled anti-tag antibody. Simultaneous binding of both the tracer and antibody to the kinase gives rise to a FRET-signal. Binding of an inhibitor to the kinase competes for binding with the tracer, resulting in a loss of FRET-signal.
A given compound was diluted in DMSO to make a stock compound solution. The stock compound solution was serially diluted over eight steps in DMSO. Each diluted compound solution in DMSO was diluted in kinase buffer. Afterwards four kinds of working solution were prepared. First, Tracer-Working solution consists of Tracer 236 and Kinase Buffer. Second, Axl, Mer, Tyro3 or Met/anti-GST-AB-Working solution contained one of the kinases Axl, and Mer or anti-GST-AB (=anti glutathione-S-transferase antibody) in Kinase Buffer. Third, anti-GST-AB-Working solution was made with anti-GST-AB and Kinase Buffer. Last, in the DMSO-Working solution DMSO was added to Kinase Buffer to a final concentration to 3%. Each of the four kinds of working solutions were separately added to the assay plate and then incubated for 1 h at room temperature. After incubation, the assay plate was measured with respect to the FRET-Signal with the EnVision (Perkin Elmer) using the program LanthaHTRF-Assay. Data evaluation was done in the Quattro Workflow software. Kd (the equilibrium dissociation constant) values were calculated relative to vehicle (DMSO) control wells.
On to `COc1cc2nccc(Oc3ccc(NC(=O)c4nn(CC5COC5)cc4OCC(F)(F)F)nc3)c2cc1OC` [Compound 92], for which the Kd was 1.4 nM.

Still in this test, the particulars now being: read-out: Axl kinase binding activity (Kd).
As to `CCn1cc(OC(C)C)c(C(=O)Nc2ccc(Oc3ccnc4cc(OC)c(OC)cc34)cn2)n1` [Compound 6], the Kd is below 100 nM.

In the case of `CCn1cc(OCC2CCC2)c(C(=O)Nc2ccc(Oc3ccnc4cc(OC)c(OC)cc34)cn2)n1` [Compound 8], the Kd was below 100 nM.

Turning to `COc1cc2nccc(Oc3ccc(NC(=O)c4nn(CCN(C)C)cc4OCC(F)(F)F)nc3)c2cc1OC` [Compound 9], the Kd was below 100 nM.

Turning to `CNCCn1cc(OCC(F)(F)F)c(C(=O)Nc2ccc(Oc3ccnc4cc(OC)c(OC)cc34)cn2)n1` [Compound 11], the Kd was below 100 nM.

Regarding `COc1cc2nccc(Oc3ccc(NC(=O)c4nn(CC5COC5)cc4OCC(F)(F)F)nc3)c2cc1OC` [Compound 92], the Kd is below 100 nM.

As for `COc1cc2nccc(Oc3ccc(NC(=O)c4nn(C5CCN(C)C5)cc4OCC(F)(F)F)cc3F)c2cc1OC` (stereo not shown) [Compound 96], the Kd was below 100 nM.

As to `COc1cc2nccc(Oc3ccc(NC(=O)c4nn(CC5COC5)cc4OCC(F)(F)F)cc3F)c2cc1OC` [Compound 97], the Kd is below 100 nM.

Consider `COc1cc2nccc(Oc3ccc(NC(=O)c4nn(C5CCN(C)C5)cc4OCC(F)(F)F)cc3C)c2cc1OC` (stereo not shown) [Compound 98], for which the Kd fell in the range of 100 to 500 nM.

For `COc1cc2nccc(Oc3ccc(NC(=O)c4nn(CC5COC5)cc4OCC(F)(F)F)cc3C)c2cc1OC` [Compound 99], the Kd is below 100 nM.

As for `COc1cc2nccc(Oc3ccc(NC(=O)c4nn(C5CCN(C)C5)cc4OCC(F)(F)F)cc3)c2cc1OC` (stereo not shown) [Compound 100], the equilibrium dissociation constant (Kd) was below 100 nM.

On to `COc1cc2nccc(Oc3ccc(NC(=O)c4nn(CC5COC5)cc4OCC(F)(F)F)cc3)c2cc1OC` [Compound 101], for which the equilibrium dissociation constant (Kd) is below 100 nM.

With `COc1cc2nccc(Oc3ccc(NC(=O)c4nn(C)cc4OCC(F)(F)F)nn3)c2cc1OC` [Compound 102], the Kd was below 100 nM.

Turning to `COc1cc2nccc(Oc3ccc(NC(=O)c4nn(CC(C)C)cc4OCC(F)(F)F)cn3)c2cc1OC` [Compound 103], the Kd is below 100 nM.

For `COCCn1cc(OCC(F)(F)F)c(C(=O)Nc2ccc(Oc3ccnc4cc(OC)c(OC)cc34)nc2)n1` [Compound 104], the Kd is below 100 nM.

For `CCCn1cc(OCCOC)c(C(=O)Nc2ccc(Oc3ccnc4cc(OC)c(OC)cc34)cn2)n1` [Compound 105], the Kd is below 100 nM.

`CCCn1cc(OCC2COC2)c(C(=O)Nc2ccc(Oc3ccnc4cc(OC)c(OC)cc34)cn2)n1` [Compound 106]: the Kd was below 100 nM.

For `COCCOc1cn(C2CC2)nc1C(=O)Nc1ccc(Oc2ccnc3cc(OC)c(OC)cc23)cn1` [Compound 107], the Kd was below 100 nM.

`COc1cc2nccc(Oc3ccc(NC(=O)c4nn(C5CC5)cc4OC(C)C)nc3)c2cc1OC` [Compound 108]: the Kd was below 100 nM.

With `COc1cc2nccc(Oc3ccc(NC(=O)c4nn(C5CC5)cc4OCC(F)F)nc3)c2cc1OC` [Compound 109], the Kd is below 100 nM.

As for `COc1cc2nccc(Oc3ccc(NC(=O)c4nn(C5CC5)cc4OCCF)nc3)c2cc1OC` [Compound 110], the Kd was below 100 nM.

On to `COc1cc2nccc(Oc3ccc(NC(=O)c4nn(C5CC5)cc4OCC4CCC4)nc3)c2cc1OC` [Compound 111], for which the Kd is below 100 nM.

In the case of `COc1cc2nccc(Oc3ccc(NC(=O)c4nn(C5CC5)cc4OCC(F)(F)F)nn3)c2cc1OC` [Compound 112], the Kd was below 100 nM.

Turning to `COc1cc2nccc(Oc3ccc(NC(=O)c4nn(C5CC5)cc4OCCF)nn3)c2cc1OC` [Compound 113], the Kd is below 100 nM.

For the compound `CCCn1cc(OCC(F)(F)F)c(C(=O)Nc2ccc(Oc3ccnc4cc(OC)c(OC)cc34)c(C(F)(F)F)c2)n1` [Compound 114], the equilibrium dissociation constant (Kd) is below 100 nM.

For the compound `COc1cc2nccc(Oc3ccc(NC(=O)c4nn(CCOC5CC5)cc4OCC(F)(F)F)c(F)c3)c2cc1OC` [Compound 115], the Kd was below 100 nM.

Turning to `COc1cc2nccc(Oc3ccc(NC(=O)c4nn(CCOC5CC5)cc4OCC(F)(F)F)cc3F)c2cc1OC` [Compound 116], the Kd is below 100 nM.

On to `COc1cc2nccc(Oc3ccc(NC(=O)c4nn(CCOC5CC5)cc4OCC(F)(F)F)cc3C)c2cc1OC` [Compound 117], for which the Kd was below 100 nM.

As for `COc1cc2nccc(Oc3ccc(NC(=O)c4nn(CCOC5CC5)cc4OCC(F)(F)F)cc3)c2cc1OC` [Compound 118], the Kd is below 100 nM.

In the case of `CNCCn1cc(OCC(F)(F)F)c(C(=O)Nc2ccc(Oc3ccnc4cc(OC)c(OC)cc34)cc2)n1` [Compound 119], the equilibrium dissociation constant (Kd) is 100 to 500 nM.

As to `COc1cc2nccc(Oc3ccc(NC(=O)c4nn(CCOC5CC5)cc4OCC(F)(F)F)nn3)c2cc1OC` [Compound 120], the Kd is below 100 nM.

`COc1cc2nccc(Oc3ccc(NC(=O)c4nn(C5CCCC5)cc4OCC(F)(F)F)nn3)c2cc1OC` [Compound 121]: the Kd was below 100 nM.

Turning to `COc1cc2nccc(Oc3ccc(NC(=O)c4nn(C5CCNC5)cc4OCC(F)(F)F)nn3)c2cc1OC` (stereo not shown) [Compound 122], the Kd lay within 100 to 500 nM.

Take `COc1cc2nccc(Oc3ccc(NC(=O)c4nn(CC5COC5)cc4OCC(F)(F)F)nn3)c2cc1OC` [Compound 123]: the Kd is below 100 nM.

Regarding `COc1cc2nccc(Oc3ccc(NC(=O)c4nn(CC(C)C)cc4OCC(F)(F)F)nn3)c2cc1OC` [Compound 124], the dissociation constant (Kd) was below 100 nM.

Take `COc1cc2nccc(Oc3ccc(NC(=O)c4nn(CCN)cc4OCC(F)(F)F)nn3)c2cc1OC` [Compound 125]: the Kd was at least 500 nM.

Consider `COCCn1cc(OCC(F)(F)F)c(C(=O)Nc2ccc(Oc3ccnc4cc(OC)c(OC)cc34)nn2)n1` [Compound 126], for which the Kd is below 100 nM.

Turning to `CNCCn1cc(OCC(F)(F)F)c(C(=O)Nc2ccc(Oc3ccnc4cc(OC)c(OC)cc34)nn2)n1` [Compound 127], the Kd was at least 500 nM.

As to `COc1cc2nccc(Oc3ccc(NC(=O)c4nn(C5CCOC5)cc4OCC(F)(F)F)nn3)c2cc1OC` (stereo not shown) [Compound 128], the dissociation constant (Kd) is below 100 nM.

Regarding `COc1cc2nccc(Oc3ccc(NC(=O)c4nn(CCO)cc4OCC(F)(F)F)cn3)c2cc1OC` [Compound 129], the Kd lay in the range of 100 to 500 nM.

For `COc1cc2nccc(Oc3ccc(NC(=O)c4nn(CCOC5CC5)cc4OCC(F)(F)F)cn3)c2cc1OC` [Compound 130], the Kd is below 100 nM.

Regarding `COc1cc2nccc(Oc3ccc(NC(=O)c4nn(C5CCCC5)cc4OCC(F)(F)F)cn3)c2cc1OC` [Compound 131], the Kd is below 100 nM.

As to `COc1cc2nccc(Oc3ccc(NC(=O)c4nn(C5CCNC5)cc4OCC(F)(F)F)cn3)c2cc1OC` (stereo not shown) [Compound 132], the equilibrium dissociation constant (Kd) was at least 500 nM.

As for `COc1cc2nccc(Oc3ccc(NC(=O)c4nn(C5CCN(C)C5)cc4OCC(F)(F)F)cn3)c2cc1OC` (stereo not shown) [Compound 133], the Kd is 100 to 500 nM.

As to `COc1cc2nccc(Oc3ccc(NC(=O)c4nn(CC5COC5)cc4OCC(F)(F)F)cn3)c2cc1OC` [Compound 134], the Kd was below 100 nM.

Take `COc1cc2nccc(Oc3ccc(NC(=O)c4nn(CCN)cc4OCC(F)(F)F)cn3)c2cc1OC` [Compound 135]: the Kd was at least 500 nM.

As to `COc1cc2nccc(Oc3ccc(NC(=O)c4nn(CC(C)O)cc4OCC(F)(F)F)cn3)c2cc1OC` (stereo not shown) [Compound 136], the Kd is below 100 nM.

As to `CNCCn1cc(OCC(F)(F)F)c(C(=O)Nc2ccc(Oc3ccnc4cc(OC)c(OC)cc34)nc2)n1` [Compound 137], the Kd is at least 500 nM.

As to `COc1cc2nccc(Oc3ccc(NC(=O)c4nn(C5CCOC5)cc4OCC(F)(F)F)cn3)c2cc1OC` (stereo not shown) [Compound 138], the Kd was below 100 nM.

Consider `CCCn1cc(OCC(F)(F)F)c(C(=O)Nc2ccc(Oc3ccnc4cc(OC)c(OC)cc34)nc2)n1` [Compound 139], for which the Kd was below 100 nM.

On to `CCCn1cc(OCCNC)c(C(=O)Nc2ccc(Oc3ccnc4cc(OC)c(OC)cc34)cn2)n1` [Compound 140], for which the Kd is at least 500 nM.

Consider `CNCCOc1cn(C2CC2)nc1C(=O)Nc1ccc(Oc2ccnc3cc(OC)c(OC)cc23)cn1` [Compound 141], for which the Kd is at least 500 nM.
